Measurements: the supplement of paper PMC4862054

Legend:
Conditions in all cases: incubation time: 72 h
BT-474 [1] = assay: normalised response (% of control), CellTox Green; higher = less cell death (100 = DMSO, 0 = benzethonium chloride kill control)
Outline: (§1)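 The table gives the normalised signal for a single concentration in each entry. Breast cancer cell lines were seeded (20 µl suspension) into 384-well plates holding compound at 5 concentrations in 10-fold steps over a compound-specific 10,000-fold range and incubated 72 h, then read for CellTox Green fluorescence (485/520 nm) and CellTiter-Glo luminescence. Normalisation on each plate used 0.1 % DMSO (100) and a positive kill control (0).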

BT-549 [2] = assay: as above
Outline: as §1

CAL-120 [3] = assay: as above
Outline: as §1

CAL-148 [4] = assay: as above
Outline: as §1

CAL-51 [5] = assay: as above
Outline: as §1

CAL-85-1 [6] = assay: as above
Outline: as §1

DU-4475 [7] = assay: as above
Outline: as §1

HCC1143 [8] = assay: as above
Outline: as §1

HCC1599 [9] = assay: as above
Outline: as §1

HCC1937 [10] = assay: as above
Outline: as §1

HDQ-P1 [11] = assay: as above
Outline: as §1

Hs578T [12] = assay: as above
Outline: as §1

MCF-10A [13] = assay: as above
Outline: as §1

MDA-MB-231 [14] = assay: as above
Outline: as §1

MDA-MB-453 [15] = assay: as above
Outline: as §1

MDA-MB-468 [16] = assay: as above
Outline: as §1

MFM-223 [17] = assay: as above
Outline: as §1

BT-474 [18] = assay: normalised response (% of control), CellTiter-Glo; higher = more viable cells (100 = DMSO, 0 = benzethonium chloride kill control)
Experimental: (§2)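 DSRT, 72 h incubation, CellTox Green / CellTiter-Glo readout. Signal is normalised to DMSO and benzethonium chloride controls. Value is the normalised response at dose 3.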

BT-549 [19] = assay: as above
Experimental: as §2

CAL-120 [20] = assay: as above
Experimental: as §2

CAL-148 [21] = assay: as above
Experimental: as §2

CAL-51 [22] = assay: as above
Experimental: as §2

CAL-85-1 [23] = assay: as above
Experimental: as §2

DU-4475 [24] = assay: as above
Experimental: as §2

HCC1143 [25] = assay: as above
Experimental: as §2

HCC1599 [26] = assay: as above
Experimental: as §2

HCC1937 [27] = assay: as above
Experimental: as §2

HDQ-P1 [28] = assay: as above
Experimental: as §2

Hs578T [29] = assay: as above
Experimental: as §2

MCF-10A [30] = assay: as above
Experimental: as §2

MDA-MB-231 [31] = assay: as above
Experimental: as §2

MDA-MB-436 [32] = assay: as above
Experimental: as §2

MDA-MB-453 [33] = assay: as above
Experimental: as §2

MDA-MB-468 [34] = assay: as above
Experimental: as §2

MFM-223 [35] = assay: as above
Experimental: as §2

SK-BR-3 = assay: as above
Experimental: as §2

MDA-MB-436 [36] = assay: normalised response (% of control), CellTox Green; higher = less cell death (100 = DMSO, 0 = benzethonium chloride kill control)
Outline: as §1

Structure (SMILES) | normalised response (BT-474 [1]) [%] | normalised response (BT-549 [2]) [%] | normalised response (CAL-120 [3]) [%] | normalised response (CAL-148 [4]) [%] | normalised response (CAL-51 [5]) [%] | normalised response (CAL-85-1 [6]) [%] | normalised response (DU-4475 [7]) [%] | normalised response (HCC1143 [8]) [%] | normalised response (HCC1599 [9]) [%] | normalised response (HCC1937 [10]) [%] | normalised response (HDQ-P1 [11]) [%] | normalised response (Hs578T [12]) [%] | normalised response (MCF-10A [13]) [%] | normalised response (MDA-MB-231 [14]) [%] | normalised response (MDA-MB-453 [15]) [%] | normalised response (MDA-MB-468 [16]) [%] | normalised response (MFM-223 [17]) [%] | normalised response (BT-474 [18]) [%] | normalised response (BT-549 [19]) [%] | normalised response (CAL-120 [20]) [%] | normalised response (CAL-148 [21]) [%] | normalised response (CAL-51 [22]) [%] | normalised response (CAL-85-1 [23]) [%] | normalised response (DU-4475 [24]) [%] | normalised response (HCC1143 [25]) [%] | normalised response (HCC1599 [26]) [%] | normalised response (HCC1937 [27]) [%] | normalised response (HDQ-P1 [28]) [%] | normalised response (Hs578T [29]) [%] | normalised response (MCF-10A [30]) [%] | normalised response (MDA-MB-231 [31]) [%] | normalised response (MDA-MB-436 [32]) [%] | normalised response (MDA-MB-453 [33]) [%] | normalised response (MDA-MB-468 [34]) [%] | normalised response (MFM-223 [35]) [%] | normalised response (SK-BR-3) [%] | normalised response (MDA-MB-436 [36]) [%]
O=C(O)CCCCC(CCSCc1ccccc1)SCc1ccccc1 (stereo not drawn) [CPI-613] (100 nM) | 93.3 | 96.5 | 102 | 104 | 75.1 | 104 | 101 | 73.1 | 95.4 | 103 | 107 | 105 | 104 | 51.4 | 101 | 122 | 64.3 | 106 | 105 | 98.9 | 108 | 61.4 | 96.4 | 101 | 106 | 114 | 101 | 99 | 99.6 | 107 | 107 | 101 | 104 | 102 | 106 | 104 | 
Nc1ccccc1NC(=O)c1ccc(CNC(=O)OCc2cccnc2)cc1 [Entinostat] (100 nM) | 100 | 110 | 97.4 | 104 | 101 | 103 | 100 | 67.2 | 96.6 | 101 | 107 | 109 |  | 103 | 101 | 105 | 99.3 | 94.8 | 115 | 98.2 | 104 | 76.1 | 112 | 105 | 103 | 96.9 | 94 | 104 | 102 | 108 | 98.6 | 102 | 103 | 96.8 | 104 | 107 | 80.2
CC[C@H](Nc1ncnc2[nH]cnc12)c1nc2cccc(F)c2c(=O)n1-c1ccccc1 [GS-1101] (100 nM) | 93 | 105 | 102 | 102 | 93.3 | 93.9 | 97.6 | 107 | 94 | 87.8 | 105 | 94 |  | 84.8 | 100 | 103 | 78 | 92.7 | 95.1 | 94.6 | 96.1 | 93.3 | 90.4 | 102 | 98.5 | 93 | 90.8 | 93.1 | 96.8 | 84.1 | 92 | 90 | 84.8 | 86.8 | 91.9 | 85.2 | 80.1
N#Cc1ccc(C(c2ccc(C#N)cc2)n2cncn2)cc1 [Letrozole] (100 nM) | 93.5 | 96.3 | 91.1 | 87.3 | 103 | 114 | 101 | 108 | 102 | 83.5 | 53.6 | 75.3 | 105 | 79 | 100 |  | 94.5 | 95.5 | 104 | 99.8 | 97.2 | 104 | 103 | 102 | 104 | 95.9 | 94.2 | 96.7 | 105 | 103 | 101 | 105 | 101 | 94.5 | 106 | 102 | 
Nc1nc2[nH]cc(CCc3ccc(C(=O)N[C@@H](CCC(=O)O)C(=O)O)cc3)c2c(=O)[nH]1 [Pemetrexed] (100 nM) | 96.2 | 96.6 | 98 | 99.7 | 88.1 | 103 | 97.7 |  | 91.2 | 88.5 | 102 | 103 | 103 | 87.1 | 104 | 93 | 90.4 | 88.6 | 104 | 105 | 93.2 | 66.6 | 61 | 95 | 103 | 72.1 | 75.7 | 92.3 | 28.8 | 92.8 | 96.8 | 80.9 | 98.1 | 80.4 | 95.2 | 63.2 | 58.9
Cc1cnc(NC(=O)Nc2cc(Br)c(C)cc2OC[C@@H]2CNCCO2)cn1 [Rabusertib] (10 nM) | 102 | 95.7 | 102 | 98.4 | 106 | 95.2 | 106 |  | 110 | 119 | 94.3 | 108 | 103 | 122 | 106 | 89.4 | 109 | 97.6 | 98.4 | 109 | 112 | 91.9 | 102 | 104 | 104 | 106 | 99.7 | 96.3 | 107 | 107 | 109 | 115 | 118 | 108 | 104 | 110 | 107
CC(=O)Nc1cccc(-n2c(=O)n(C3CC3)c(=O)c3c(Nc4ccc(I)cc4F)n(C)c(=O)c(C)c32)c1 [Trametinib] (2.5 nM) | 100 | 94.2 | 96.3 | 102 | 117 | 86.5 | 82.8 | 112 | 117 | 117 | 98.6 | 89.9 | 80.7 |  | 103 | 120 | 72.4 | 94 | 100 | 101 | 99.1 | 112 | 97.4 | 24.3 | 89.3 | 99.2 | 86.8 | 70.1 | 90.8 | 47.4 | 86.5 | 96.1 | 109 | 93.3 | 106 | 98.4 | 101
CCCCC(=O)OCC(=O)[C@]1(O)Cc2c(O)c3c(c(O)c2[C@@H](O[C@H]2C[C@H](NC(=O)C(F)(F)F)[C@H](O)[C@H](C)O2)C1)C(=O)c1c(OC)cccc1C3=O [Valrubicin] (50 nM) | 103 | 121 | 111 | 76.3 | 76.7 | 118 | 109 | 111 | 115 |  | 107 | 114 | 106 | 122 | 108 | 152 | 108 | 98.2 | 86.2 | 98.4 | 97 | 72.7 | 98.8 | 84 | 104 | 91.7 | 97.9 | 102 | 101 | 101 | 97.4 | 92.2 | 118 | 92.9 | 101 | 94.8 | 101
CCCS(=O)(=O)Nc1ccc(F)c(C(=O)c2c[nH]c3ncc(-c4ccc(Cl)cc4)cc23)c1F [Vemurafenib] (100 nM) | 98.3 | 94.2 | 97.7 | 97.3 | 76.9 | 102 | 96.1 | 82.2 | 94 | 92.1 | 108 | 103 | 91.9 |  | 97.9 | 98.4 | 94.2 | 96.9 | 97.9 | 93.3 | 93.9 | 88.6 | 91.8 | 86.5 | 94.7 | 95.5 | 97.7 | 94.3 | 95.9 | 96.8 | 93.4 | 95.9 | 79.3 | 91.7 | 89.4 | 84.8 | 72.4
